Data published in ChEMBL document CHEMBL1201862, “PubChem BioAssay data set” (2004).
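These data come from cells grown in 96-well plates and exposed to compound for 48 hours at five concentrations. At the GI50, growth is halved.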 The source made the active and inactive calls. Rule as the data show it: active = GI50 up to about 1.1 µM and inactive = higher.

Legend:
Experiment in all cases: NCI-60 cell line screen, 48 h
MDA-MB-231 = test system: MDA-MB-231
HL-60 = test system: HL-60
COLO 205 = test system: COLO 205
SF-268 = test system: SF-268
SNB-75 = test system: SNB-75
Malme-3M = test system: Malme-3M
OVCAR-3 = test system: OVCAR-3
ACHN = test system: ACHN
SF-295 = test system: SF-295
U-251 = test system: U-251
HT-29 = test system: HT-29
EKVX = test system: EKVX
A498 = test system: A498
UACC-62 = test system: UACC-62
NCI/ADR-RES = test system: NCI/ADR-RES
MDA-MB-435 = test system: MDA-MB-435
IGROV-1 = test system: IGROV-1
HOP-92 = test system: HOP-92
M14 = test system: M14
BT-549 = test system: BT-549

Measured: GI50

CCCCCCCCOCC1S(=O)(=O)OCCOS1(=O)=O
inactive: MDA-MB-231 > 100 µM | HL-60 > 100 µM | COLO 205 > 100 µM | SF-268 > 100 µM | SNB-75 > 100 µM | Malme-3M > 100 µM | OVCAR-3 > 100 µM | ACHN > 100 µM | SF-295 > 100 µM | U-251 > 100 µM | HT-29 > 100 µM | EKVX > 100 µM | A498 > 100 µM | UACC-62 > 100 µM | NCI/ADR-RES > 100 µM | MDA-MB-435 > 100 µM | IGROV-1 > 100 µM | HOP-92 > 100 µM | M14 > 100 µM

CCc1nc2c(n1CC)C(=O)c1ccccc1C2=O
inactive: MDA-MB-231 16.9 µM | HL-60 32.7 µM | COLO 205 16.8 µM | SF-268 69 µM | SNB-75 20.7 µM | Malme-3M 15.5 µM | OVCAR-3 18.7 µM | ACHN 39 µM | SF-295 48.1 µM | U-251 44.2 µM | HT-29 24.9 µM | EKVX 91.6 µM | UACC-62 28.8 µM | BT-549 17.2 µM | NCI/ADR-RES 31.2 µM | MDA-MB-435 18.3 µM | IGROV-1 24.5 µM | HOP-92 63.2 µM | M14 23.7 µM

CN(N=O)N1C(=O)SCC(c2ccccc2)(c2ccccc2)C1=O
inactive: MDA-MB-231 37.3 µM | HL-60 46.1 µM | COLO 205 25.3 µM | SF-268 32.1 µM | SNB-75 25.6 µM | Malme-3M 34.1 µM | OVCAR-3 37.6 µM | ACHN 37.2 µM | SF-295 35.6 µM | U-251 28.4 µM | HT-29 33.3 µM | EKVX 34.7 µM | A498 > 100 µM | UACC-62 37.8 µM | NCI/ADR-RES 34.4 µM | MDA-MB-435 24.3 µM | HOP-92 38.9 µM | M14 37.5 µM

C/C(=N/OC(=O)c1cccc2c(=O)c3ccccc3[nH]c12)[C@H]1CC[C@H]2[C@@H]3CCC4=C/C(=N/OC(=O)c5cccc6c(=O)c7ccccc7[nH]c56)CC[C@]4(C)[C@H]3CC[C@]12C
inactive: MDA-MB-231 14.3 µM | HL-60 3.91 µM | COLO 205 15.8 µM | SF-268 17 µM | SNB-75 29.9 µM | Malme-3M 22.2 µM | OVCAR-3 17.1 µM | ACHN 16 µM | SF-295 16.8 µM | U-251 15.8 µM | HT-29 13.5 µM | EKVX 10.6 µM | UACC-62 14.1 µM | BT-549 17.7 µM | NCI/ADR-RES 20.4 µM | MDA-MB-435 15.5 µM | IGROV-1 14.4 µM | HOP-92 21.3 µM | M14 14.6 µM

O=c1c2c(oc3ccccc13)-c1ccccc1OC2
inactive: MDA-MB-231 21.1 µM | COLO 205 > 10 µM | SF-268 57.9 µM | SNB-75 16.7 µM | Malme-3M > 100 µM | OVCAR-3 > 100 µM | ACHN 35.7 µM | SF-295 > 100 µM | U-251 29 µM | HT-29 > 100 µM | EKVX 53.2 µM | UACC-62 > 100 µM | BT-549 > 100 µM | NCI/ADR-RES 29.3 µM | MDA-MB-435 > 100 µM | IGROV-1 36.7 µM | M14 > 100 µM

COc1cc(OC)c(OC)cc1/C=N/N=C(\N)NO
inactive: MDA-MB-231 > 100 µM | HL-60 83.9 µM | COLO 205 80 µM | SF-268 > 100 µM | SNB-75 21.9 µM | Malme-3M > 100 µM | OVCAR-3 > 100 µM | ACHN 56.2 µM | SF-295 51.1 µM | U-251 > 100 µM | HT-29 > 100 µM | EKVX > 100 µM | A498 > 100 µM | UACC-62 > 100 µM | NCI/ADR-RES > 100 µM | MDA-MB-435 68.2 µM | IGROV-1 > 100 µM | HOP-92 77.6 µM | M14 > 100 µM

Clc1ccc(/N=C/c2cc3cc(Br)ccc3nc2Cl)cc1
inactive: HL-60 9.82 µM | COLO 205 > 50 µM | SF-268 17 µM | SNB-75 > 50 µM | Malme-3M > 50 µM | HT-29 16 µM | EKVX 29.6 µM | BT-549 > 50 µM | NCI/ADR-RES 45.1 µM | MDA-MB-435 8.71 µM | IGROV-1 17.8 µM | HOP-92 > 50 µM | M14 14.4 µM

CC1=NC(C)(C)N(O)C1(C)C
inactive: MDA-MB-231 > 100 µM | HL-60 > 100 µM | COLO 205 > 100 µM | SF-268 > 100 µM | SNB-75 > 100 µM | Malme-3M > 100 µM | OVCAR-3 > 100 µM | ACHN > 100 µM | SF-295 > 100 µM | U-251 > 100 µM | HT-29 > 100 µM | EKVX > 100 µM | A498 > 100 µM | UACC-62 > 100 µM | NCI/ADR-RES > 100 µM | MDA-MB-435 > 100 µM | IGROV-1 > 100 µM | HOP-92 > 100 µM | M14 > 100 µM

COC(=O)/C=C\COCC1C2CCC(=O)C21 (centres undefined)
inactive: MDA-MB-231 > 25 µM | COLO 205 14 µM | SF-268 4.68 µM | SNB-75 > 25 µM | Malme-3M 4.67 µM | OVCAR-3 8.41 µM | ACHN 11.6 µM | SF-295 > 25 µM | U-251 > 25 µM | HT-29 6.05 µM | EKVX 9.16 µM | UACC-62 16.4 µM | BT-549 11 µM | NCI/ADR-RES 17.4 µM | MDA-MB-435 > 25 µM | IGROV-1 10.5 µM | HOP-92 5.77 µM | M14 8.36 µM

Cc1nn(C(=O)Cc2ccccc2)c2c1C(c1ccc(O)cc1O)SC(=N)N2 (centres undefined)
inactive: MDA-MB-231 > 100 µM | HL-60 > 100 µM | COLO 205 > 100 µM | SF-268 > 100 µM | SNB-75 17.2 µM | Malme-3M > 100 µM | ACHN > 100 µM | SF-295 > 100 µM | HT-29 > 100 µM | EKVX > 100 µM | A498 > 100 µM | UACC-62 > 100 µM | BT-549 > 100 µM | MDA-MB-435 > 100 µM | IGROV-1 > 100 µM | M14 > 100 µM

CCNC1CC(C(C)(C)NCC)CC=C1C (centres undefined)
inactive: MDA-MB-231 > 100 µM | HL-60 > 100 µM | COLO 205 > 100 µM | SF-268 > 100 µM | SNB-75 > 100 µM | OVCAR-3 > 100 µM | SF-295 > 100 µM | U-251 > 100 µM | HT-29 > 100 µM | EKVX > 100 µM | UACC-62 > 100 µM | BT-549 > 100 µM | NCI/ADR-RES > 100 µM | MDA-MB-435 > 100 µM | IGROV-1 > 100 µM | HOP-92 > 100 µM | M14 > 100 µM
